In US20240285627A1, “DRUG COMBINATION OF FAK INHIBITOR AND IMMUNOGENIC CELL DEATH INDUCER AND USE THEREOF” (INXMED (NANJING) CO., LTD., priority 2022, published 2024):
“And” between values parts separate entries of the source, which are not always exact repeats. Equal values may be shown once.

Key:
Mouse lung cancer KPL = assay: KPL cells with IN10018 and MRTX1133: microscope and flow cytometry for CRT / Annexin V (Example 6); assay type: cell-based; conditions: 48 hours, IN10018 10 μM, MRTX1133 15 μM
Description: (§1) Mouse lung cancer KPL (Insitute of Biochemistry and Cell Biology) were cultured with RPMI-1640 (Shanghai Basalmedia, classification number: L210KJ, batch number: F210916)+10% FBS (Gibco, classification number: 10099-141c, batch number: 2158737cp) and passaged twice. When the cells were in good condition, the culture solution was placed in a 24-well plate. After the cells were spread for 24 hours, four groups were set up, wherein the first group was a control group, and the culture medium was added; the second group was IN10018 with a concentration of 10 μM; the third group was MRTX1133 (SuperLan Chemical Co., Ltd., classification number: P2621928-55-8, batch number: 131005) with a concentration of 15 μM; and the fourth group was IN10018 (10 μM) combined with MRTX1133 (15 μM). The drugs were mixed and the mixture was cultured in a 5% CO2 incubator at 37° C. for 48 hours.
(§2) After 48 hours of drug action, the cells were observed under a microscope and photographed, and the photos were kept. Then the cells were collected, subjected to flow analysis, and washed twice with flow buffer (PBS+2% FBS). 0.5 μl of AF647 anti-Calreticulin antibody (abcam, classification number: ab196159, batch number: CR33676773) was added to each well and fully mixed. […] The mixture was cultured at room temperature in the dark for 15 minutes, and then analyzed by flow cytometry.

[1] = test system: Mouse colon cancer CT26 cells; assay: CT26 cells with IN10018 and MRTX1133: microscope and flow cytometry for CRT / Annexin V (Example 4); assay type: cell-based; conditions: CT26, 48 hours; IN10018 5 μM, MRTX1133 6 μM
Description: as §1, with “Mouse colon” for “Mouse lung”, “cancer CT26 cells” for “cancer KPL”, “of 5” for “of 10”, “of 6” for “of 15”, “IN10018 (5” for “IN10018 (10”, “MRTX1133 (6” for “MRTX1133 (15”
as §2

[2] = test system: Mouse colon cancer CT26 cells; assay: Induction of immunogenic cell death targets by Crizotinib and IN10018 in CT26 cells (Example 7); assay type: cell-based; conditions: CT26, 48 hours; IN10018 5 μM, Crizotinib 3 μM
Description: CT26 cells were cultured in monolayer in vitro, and the culture conditions were: RPMI-1640 medium with 10% fetal bovine serum, 37° C. and 5% CO2. Trypsin was used for routine digestion and passage treatment two or three times a week. When the cells were in exponential growth period and the adherent confluence reached 80%-90%, the cells were collected and plated.
CT26 cells were digested with trypsin, then collected and counted. According to the counting results, the cells were diluted with RPMI-1640+10% FBS, and the dilution concentration was 50,000 cells per ml. Then, the cells were plated on 24-well culture plates, and 1 ml of cell suspension (50,000 cells) was laid in each well. After plating, the cells were cultured in 37° C. and 5% CO2 incubator. […]
After the cells were washed twice with flow buffer (DPBS+2% FBS), the cells in each group were divided into two parts on average, one of which was added with 0.5 μl of AF647 anti-Calreticulin antibody in each well, then mixed well, and incubated in the dark for 20 minutes at 4° C. […] The cells were cultured at room temperature in the dark for 15 minutes, and then analyzed by flow cytometry.
Data analysis: After the assay, the cell positive rate was analyzed by Flowjo(V10) software.

[3] = Weight change, survival and clinical status in the CT26 allograft model (Example 9); assay type: in vivo
Description: The health status and death of animals was monitored every day. Routine examination included observing the effects of tumor growth and drug treatment on the daily behavior of animals, such as behavioral activities, food and water intake (visual observation only), body weight change, appearance signs or other abnormal conditions. Based on the number of animals in each group, the death number and side effects of animals in the group were recorded.
The assay was carried out according to the administration scheme. During the assay, animal activities such as eating and drinking were observed daily, and animal weight was recorded 2˜3 times a week. […] The body weight of the three-drug combined group of MRTX1133+IN10018+TIGIT (5+25+3 mg/kg) group changed from 19.5 g on the day of group administration (Day 0) to 21.2 g on the 16th day, and the change rate of body weight was […].

| SMILES | cell state under a microscope (Mouse lung cancer KPL) | cell state under a microscope [1] | cell state under a microscope (cell death; cell viability) [2] | Weight on Day 0 ([3]; Day 0, at grouping, mean ± SD) | Weight change rate (%) ([3]; Day 16 vs Day 0) | Weight on Day 14/16 ([3]; administration groups: 16th day after group administration, mean ± SD) | Animal survival ([3]; number of animals alive on day 0/number alive on day 16) |
| --- | --- | --- | --- | --- | --- | --- | --- |
| COc1cc(C(=O)NC2CCN(C)CC2)c(F)cc1Nc1ncc(C(F)(F)F)c(Oc2cccc3c2C(=O)N(C)C3)n1 [IN10018] | good | good | better | – | – | – | – |
| C#Cc1c(F)ccc2cc(O)cc(-c3ncc4c(N5CC6CCC(C5)N6)nc(OC[C@@]56CCCN5C[C@H](F)C6)nc4c3F)c12 [MRTX1133] | poor | poor | – | 19.4 g and 19.4 ± 0.8 g | 15.1 | 22.3 g and 22.3 ± 0.8 g | 6/6 |
